Data as given in patent US6894021B2, “Method for identifying and using A2B adenosine receptor antagonists to mediate mammalian cell proliferation” (CV Therapeutics, Inc., priority 2000, dated 2005).
Entries after “also recorded” stand apart in the source; their conditions may differ.

Experiments:
Type in all cases: cell-based
[1] = tested on: human retinal endothelial cells (HREC); experiment: HREC proliferation assay (cell counting, Coulter Counter); details: for Effect on NECA-induced HREC proliferation: antagonist 10 μmol/L with NECA 10 μmol/L, FIG. 1A
Procedure: (§1) Primary cultures of HREC were prepared and maintained as previously described and cells in passage 3-6 were used for these studies. […] To maintain purity of HREC, several precautionary steps were taken. […] In addition, cultures of HREC were exposed to trypsin for only 45 sec prior to passage. Endothelial cells float off during this short trypsin treatment while pericytes remain attached to the substrate.
HREC were seeded at 10 cells/cm in 24 well plates and allowed to adhere overnight. Cells were washed in Hank's balanced salt solution and the medium was replaced with serum—and growth supplement-free medium (SFM) for 24 hr to induce cell-cycle arrest. Cells were washed again and pre-treated with 1 U/mL adenosine deaminase (ADA) for 30 min. […] Controls were HREC exposed to SFM or normal growth medium. For the next three days at 24-hour intervals replicate wells were treated with trypsin and the cells were collected and counted using a Coulter Counter. Each condition was examined in triplicate in three separate experiments using cells from different donors for each experiment.

[2] = tested on: human retinal endothelial cells (HREC); experiment: Endothelial cell chemotaxis / chemokinesis in blind-well (Boyden) chambers; details: for Effect on NECA-stimulated HREC migration (chemotaxis): antagonist 10 μmol/L co-added with NECA 10 μmol/L
Procedure: as §1
Endothelial cell chemotaxis was measured in blind-well chemotaxis chambers (Neuroprobe, Inc, Bethesda, Md.) as previously described. Briefly a single cell suspension of endothelial cells ([…] cells/well) was prepared and treated with ADA (1 U/mL). Thirty microliters of this suspension was placed in each of 48 lower wells of the blind-well apparatus. The wells were overlaid with a porous (5 μm diameter pore) polyvinyl—and pyrrolidone-free polycarbonate membrane (Nucleopore, Pleasanton, Calif.), coated with 0.1% dermal collagen. The cells were allowed to attach to the membrane by inverting the chamber of 2 h. The chambers were then placed upright and exposed to NECA alone (10 μmol/L), NECA combined with 3-N-propylxanthine (10 μmol/L), JW-V1-08 (10 μmol/L) or the non-selective AdoR antagonist xanthine amine congener (XAC, 10 μmol/L) in a 50 μL volume. After incubation for 12 h, the membrane was recovered and scraped free of cells on the attachment side. The remaining cells, those that had migrated through the pores, were fixed in methanol, is stained with modified Wright's stain and then counter-stained with haematoxylin and eosin. The positive control was 10% fetal bovine serum and the negative control was 1% ablumin. Chemokinesis, the non-oriented increase in cell migration in response to a stimulus, was measured by adding equal concentration of NECA or NECA plus one of the antagonists to both lower and upper chambers. Treatment conditions were examined in triplicate in three separate experiments.

[3] = tested on: human retinal endothelial cells (HREC); experiment: Matrigel assay of endothelial tube formation; details: 48 h; for Effect on NECA-induced tube formation on Matrigel (photomicrographs): antagonist 10 μmol/L with NECA 10 μmol/L, FIG. 2C, 2D; for Total tube length in the presence of NECA: antagonist added to NECA, NECA alone 74.2±2.4
Procedure: as §1
Endothelial tube formation was assessed on Matrigel. Briefly, Matrigel was thawed and kept at 4° C. Multi-well plates and pipette tips were chilled to −20° C. and Matrigel (125 μL) was added to each well of a 48-well plate and allowed to harden for a minimum of 1 h at 37° C. HREC were dissociated enzymatically (2 min at 37° C. in 0.25% Trypsin-EDTA), centrifuged (300×g, 5 min) and re-suspended in serum-free media. Test agents (100 μL) were prepared at 2× final concentration and 100 μL were added to wells. HREC (3×10 in 100 μL per well) were then added and plates were incubated at 37° C. Wells were photographed 48 h after plating. Identical fields in each well were photographed to minimize the possible variation due to variable cell density caused by the settling of cells. […] All conditions were tested in duplicate wells in three separate experiments using cells from different donors.

Row | Structure (SMILES) | Effect on NECA-induced HREC proliferation [1] | Effect on NECA-stimulated HREC migration (chemotaxis) ([2]; 12 h, FIG. 1B) | Effect on NECA-induced tube formation on Matrigel (photomicrographs) [3] | Total tube length in the presence of NECA ([3]; p<0.01) [pixel] | HREC proliferation by cell counts, as density relative to cells exposed to normal growth medium ([1]; NECA 10 μmol/L, 3 days, ADA-pretreated serum-starved HREC) | HREC chemotaxis / migration ([2]; NECA alone versus unstimulated cells, 12 h, FIG. 1B) | Chemokinesis (non-oriented increase in cell migration) ([2]; equal concentration in lower and upper chambers) | Endothelial cell tube formation on Matrigel (photomicrographs) ([3]; NECA 10 μmol/L alone, FIG. 2B) | Increase of tube length over untreated cells ([3]; NECA alone) | Total tube length ([3]; NECA alone, untreated cells 35.7±1.6, p<0.01) [pixel]
1 | CCCn1c(=O)[nH]c(=O)c2[nH]cnc21 [3-N-propylxanthine] | completely blocked; also recorded: completely block the proliferative effect of NECA | antagonized the stimulatory effect of NECA on chemotaxis | diminished NECA-induced tube formation; also recorded: inhibited tube formation, resulting in fewer tubes of shorter length | 53.7±0.9 | – | – | – | – | – | –
2 | CC(C)Cn1c(=O)[nH]c(=O)c2[nH]c(N3CCCC3)nc21 [JW-V1-08, 3-isobutyl-8-pyrrolidinoxanthine] | completely blocked; also recorded: completely block the proliferative effect of NECA | antagonized the stimulatory effect of NECA on chemotaxis | diminished NECA-induced tube formation; also recorded: inhibited | 66±1.2 | – | – | – | – | – | –
3 | CCNC(=O)[C@H]1O[C@@H](n2cnc3c(N)ncnc32)[C@H](O)[C@@H]1O [NECA, 5′-N-ethylcarboxamido-adenosine] | – | – | – | – | about 80% | concentration-dependent increase in HREC migration; also recorded: increased migration in a concentration-dependent manner | Neither NECA alone nor NECA in combination with the AdoR antagonists induced chemokinesis | supported extensive tube formation | more than 2 fold | 74.2±2.4
4 | CCCn1c(=O)c2[nH]c(-c3ccc(OCC(=O)NCCN)cc3)nc2n(CCC)c1=O [XAC, xanthine amine congener] | – | abolished NECA-stimulated migration of HREC | – | – | – | – | – | – | – | –
